Assay results taken from paper PMC8909036 (Cells, 2022).

Legend:
NbPYL1b = target: T1, NbPYL1b (Nicotiana benthamiana, UniProt Z9Z2X8O5T5); assay: ligand-dependent inhibition of PP2C HAB1 by receptor, pNPP, […] nm; assay type: biochemical; settings: 0.5 μM ΔN-HAB1, 1 or 2 μM NbPYL1b, 25 mM pNPP, 2 mM MnCl2, 25 mM Tris HCl pH 7.5; agonist, IC50 read on HAB1 activity
T1 construct: full ORF amplified from Nb genomic DNA (CDS 678 nt, 225 residues by count) in pETM11, His-tagged, E. coli BL21(DE3), Ni-NTA; dimer in gel filtration (apo); assayed with N-terminally truncated HAB1 (ΔN-HAB1); with Protein phosphatase 2C 16
T1 sequence (Z9Z2X8O5T5 1-225): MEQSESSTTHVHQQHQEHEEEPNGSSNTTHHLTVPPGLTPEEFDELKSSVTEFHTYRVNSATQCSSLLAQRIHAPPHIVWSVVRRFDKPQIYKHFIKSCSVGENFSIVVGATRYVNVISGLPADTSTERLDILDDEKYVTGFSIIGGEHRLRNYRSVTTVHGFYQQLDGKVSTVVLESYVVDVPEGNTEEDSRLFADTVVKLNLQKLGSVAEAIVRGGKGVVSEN
T1 sequence (Q9CAJ0 172-511 partner limits assumed): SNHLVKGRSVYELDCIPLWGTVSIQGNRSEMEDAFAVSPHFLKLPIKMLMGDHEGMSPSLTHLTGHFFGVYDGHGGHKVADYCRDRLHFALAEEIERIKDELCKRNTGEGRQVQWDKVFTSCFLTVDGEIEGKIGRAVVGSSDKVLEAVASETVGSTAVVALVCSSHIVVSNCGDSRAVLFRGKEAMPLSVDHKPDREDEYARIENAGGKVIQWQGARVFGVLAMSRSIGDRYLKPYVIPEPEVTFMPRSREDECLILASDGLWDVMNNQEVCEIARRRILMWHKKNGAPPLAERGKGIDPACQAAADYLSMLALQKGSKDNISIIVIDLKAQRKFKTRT

ΔN-HAB1 = target: T2, ΔN-HAB1 (Arabidopsis thaliana, UniProt Q9CAJ0); assay: phosphatase turnover, […] nm, […] min; assay type: biochemical; settings: 25 mM pNPP, 2 mM MnCl2, 25 mM Tris HCl pH 7.5
T2 sequence (Q9CAJ0 172-511 limits assumed): T1 sequence (Q9CAJ0 172-511 partner limits assumed)

| Structure (SMILES) | IC50 (NbPYL1b) [nM] | phosphatase turnover, 405 nm, 30 min (ΔN-HAB1) |
| --- | --- | --- |
| Cc1ccc(CS(=O)(=O)Nc2ccc(C#N)c(C3CC3)c2)cc1 [CB] | 126 |  |
| O=[N+]([O-])c1ccc(OP(=O)(O)O)cc1 [pNPP] |  | Phosphatase activity was measured using p-nitrophenyl phosphate (pNPP) as a substrate |
